Data on four compounds can be found in ChEMBL document CHEMBL4616715, “Discovery of Diphenylacetamides as CXCR7 Inhibitors with Novel β-Arrestin Antagonist Activity” (ACS Med Chem Lett, 2020).

A word on the IC50: it is the concentration needed to halve the response being measured. Usually EC50 stands for the concentration that produces a half-maximal response.

The target of experiment [1] is C-X-C chemokine receptor type 4 (Homo sapiens, UniProt P61073). As to the kind of experiment: Displacement of [125I]-CXCL12 from human CXCR4 receptor expressed in Jurkat cells incubated for 2 hrs by radiolabeled ligand binding assay. It counts as cell-based. In general terms: Displacement assays read how much labelled ligand stays bound in the presence of the test substance.

For experiment [2], the target named is T1, Atypical chemokine receptor 3 (Homo sapiens, UniProt P25106). Briefly: Displacement of [125I]-CXCL12 from human CXCR7 receptor expressed in CHOK1 cell membranes incubated for 2 hrs by radiolabeled ligand binding assay. The arrangement: species or system CHO-K1.
Experiment [3] addresses T1, Atypical chemokine receptor 3. Briefly: Agonist activity at human CXCR7 receptor expressed in CHOK1 cell membranes assessed as increase in beta-arrestin recruitment incubated for 30 mins. Type of experiment: cell-based, CHO-K1.

T1 sequence (P25106 whole entry): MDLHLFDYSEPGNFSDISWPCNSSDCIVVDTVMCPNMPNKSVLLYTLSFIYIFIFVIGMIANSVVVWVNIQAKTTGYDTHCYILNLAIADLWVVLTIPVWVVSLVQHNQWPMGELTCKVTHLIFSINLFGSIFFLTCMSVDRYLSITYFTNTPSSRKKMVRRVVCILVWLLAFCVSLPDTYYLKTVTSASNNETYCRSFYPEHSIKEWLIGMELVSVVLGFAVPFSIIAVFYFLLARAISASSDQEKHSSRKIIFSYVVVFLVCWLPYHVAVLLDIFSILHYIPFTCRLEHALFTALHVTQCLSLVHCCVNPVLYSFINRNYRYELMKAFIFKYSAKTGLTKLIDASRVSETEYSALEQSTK
C-X-C chemokine receptor type 4, sequence (P61073 whole entry): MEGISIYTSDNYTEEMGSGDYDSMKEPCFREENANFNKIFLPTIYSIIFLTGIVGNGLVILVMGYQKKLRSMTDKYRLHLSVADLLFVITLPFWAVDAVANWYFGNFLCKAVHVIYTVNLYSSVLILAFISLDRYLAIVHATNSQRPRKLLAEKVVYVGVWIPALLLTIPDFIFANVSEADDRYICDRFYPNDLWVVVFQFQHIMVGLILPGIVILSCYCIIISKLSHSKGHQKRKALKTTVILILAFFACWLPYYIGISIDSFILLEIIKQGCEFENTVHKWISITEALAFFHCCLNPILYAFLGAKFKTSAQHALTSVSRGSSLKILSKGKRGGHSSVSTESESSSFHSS

`NC(=O)C(c1ccccc1)(c1ccccc1)[C@@H]1CCN(CCOc2ccc(-c3nccs3)cc2)C1` displayed an IC50 in experiment [1] above 15 µM.

Consider `Cc1noc(-c2ccc(OCCN3CC[C@@H](C(C(N)=O)(c4ccccc4)c4ccccc4)C3)cc2)n1`, for which the Ki in experiment [2] (read-out: Ki) turned out to be 11.8 µM. For the same compound, the EC50 in experiment [3] is above 10 µM.

Turning to `NC(=O)C(c1ccccc1)(c1ccccc1)[C@@H]1CCN(CCOc2ccc(-c3nnco3)cc2)C1`, the Ki in experiment [2] (read-out: Ki) is 4.09 µM; in experiment [2] (read-out: pKi (converted)) it was 4.17 µM. Besides, the EC50 in experiment [3] was above 10 µM.

On to `NC(=O)C(c1ccccc1)(c1ccccc1)[C@@H]1CCN(CCOc2ccc(C3=NCCO3)cc2)C1`, for which the Ki in experiment [2] (read-out: Ki) is 6.54 µM. For the same compound, the EC50 in experiment [3] is above 10 µM.
